Earlier results, collected in patent publication US12253499B2, “Thin-layer chromatography system and method for assessing analyte concentrations in samples” (UCL BUSINESS LTD, priority 2017, dated 2025).
Where two headings read alike, the source gives them in different places.

Assays:
[1] = inter-individual variability
[2] = for Therapeutic window / Therapeutic window (μg/mL): Leading candidate drugs for TDM
[3] = relative to Irinotecan
topoisomerase I = target: T1, topoisomerase I (Homo sapiens, UniProt P11387); conditions: relative to Irinotecan
T1 sequence (P11387 1-765): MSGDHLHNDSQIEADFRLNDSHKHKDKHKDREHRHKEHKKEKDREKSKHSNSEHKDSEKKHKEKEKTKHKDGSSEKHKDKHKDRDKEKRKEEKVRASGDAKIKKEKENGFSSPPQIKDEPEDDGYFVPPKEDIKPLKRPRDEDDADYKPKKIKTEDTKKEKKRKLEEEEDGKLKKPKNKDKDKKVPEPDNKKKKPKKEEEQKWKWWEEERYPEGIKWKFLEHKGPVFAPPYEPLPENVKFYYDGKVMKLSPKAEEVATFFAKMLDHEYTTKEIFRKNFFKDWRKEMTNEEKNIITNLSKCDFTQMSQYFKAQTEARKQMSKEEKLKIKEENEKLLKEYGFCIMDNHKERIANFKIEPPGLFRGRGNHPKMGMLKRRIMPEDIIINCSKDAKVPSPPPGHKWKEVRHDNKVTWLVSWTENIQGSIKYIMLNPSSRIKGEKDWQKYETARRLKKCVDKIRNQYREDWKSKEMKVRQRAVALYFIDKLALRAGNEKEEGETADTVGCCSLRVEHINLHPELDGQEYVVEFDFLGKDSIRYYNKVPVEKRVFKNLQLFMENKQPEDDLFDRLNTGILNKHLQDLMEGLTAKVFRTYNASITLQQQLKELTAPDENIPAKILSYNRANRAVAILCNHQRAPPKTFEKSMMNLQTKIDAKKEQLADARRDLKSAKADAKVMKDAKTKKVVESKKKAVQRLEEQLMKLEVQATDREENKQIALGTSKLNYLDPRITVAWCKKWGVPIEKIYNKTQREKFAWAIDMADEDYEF

[4] = Table D, In-depth list of candidate drugs
[5] = Table D, In-depth list of candidate drugs, given as daily dose

Row | Compound | Window [2, 4] | other results
1 | O=c1[nH]cc(F)c(=O)[nH]1 [5-fluoruoracil, 5-fluorouracil] | 2000 to 3000 µg/mL | Plasma drug concentrations vary [1]: ≤ 100 fold; Therapeutic window ([2]; Table D): 2000 to 3000 µg/mL
2 | NCC[C@H](O)C(=O)N[C@@H]1C[C@H](N)[C@@H](O[C@H]2O[C@H](CN)[C@@H](O)[C@H](O)[C@H]2O)[C@H](O)[C@H]1O[C@H]1O[C@H](CO)[C@@H](O)[C@H](N)[C@H]1O [Amikacin] | 5 to 15 µg/mL | 
3 | CCCCc1oc2ccccc2c1C(=O)c1cc(I)c(OCCN(CC)CC)c(I)c1 [Amiodarone] | 0.5 to 2 µg/mL | Therapeutic window (μg/mL) ([2]; Table D): 0.5-2^ μg/mL
4 | CS(=O)(=O)OCCCCOS(C)(=O)=O [Busulfan] | 0.9 to 1 µg/mL | 
5 | NC(=O)N1c2ccccc2C=Cc2ccccc21 [Carbamazepine] | 5 to 10 µg/mL | 
6 | O=C(O)c1cn(C2CC2)c2cc(N3CCNCC3)c(F)cc2c1=O [Ciprofloxacin] | 0.1 to 8.3 µg/mL | Therapeutic window ([2]; Table D): 0.1 to 8.3 µg/mL
7 | CN1C(=O)CC(=O)N(c2ccccc2)c2cc(Cl)ccc21 [Clobazam] | Varies, 0.2-5 ug/mL | 
8 | O=C1CN=C(c2ccccc2Cl)c2cc([N+](=O)[O-])ccc2N1 [Clonazepam] | 20 to 80 µg/mL | 
9 | CC(C)N(CCC(C(N)=O)(c1ccccc1)c1ccccn1)C(C)C (stereo not drawn) [Disopyramide] | 2 to 4 µg/mL | 
10 | COc1cccc2c1C(=O)c1c(O)c3c(c(O)c1C2=O)C[C@@](O)(C(=O)CO)C[C@@H]3O[C@H]1C[C@H](N)[C@H](O)[C@H](C)O1 [Doxorubicin] |  | Therapeutic window ([2]; Table D): 10 to 58 µg/mL
11 | CCC1(C)CC(=O)NC1=O (stereo not drawn) [Ethosuximide] | 40 to 100 µg/mL | 
12 | COc1cc([C@@H]2c3cc4c(cc3[C@@H](O[C@@H]3O[C@@H]5CO[C@@H](C)O[C@H]5[C@H](O)[C@H]3O)[C@H]3COC(=O)[C@H]23)OCO4)cc(OC)c1O [Etopisode] |  | Therapeutic window ([2]; Table D): 1 to 10 µg/mL
13 | NC(=O)OCC(COC(N)=O)c1ccccc1 [Felbamate] | 50 to 110 µg/mL | 
14 | NCC1(CC(=O)O)CCCCC1 [Gabapentin] | 2 to 20 µg/mL | 
15 | CCC(C)n1ncn(-c2ccc(N3CCN(c4ccc(OCC5COC(Cn6cncn6)(c6ccc(Cl)cc6Cl)O5)cc4)CC3)cc2)c1=O (stereo not drawn) [Itraconazole] | 0.5 to 17 µg/mL | Therapeutic window ([2]; Table D): 0.5 to 17 µg/mL
16 | Nc1nnc(-c2cccc(Cl)c2Cl)c(N)n1 [Lamotrigine] | 2.5 to 15 µg/mL | 
17 | CC[C@@H](C(N)=O)N1CCCC1=O [Levetiracetam] | 10 to 40 µg/mL | Window ([2]; Table D, In-depth list of candidate drugs, listed as Leveltiracetam): 20 to 40 µg/mL
18 | CCN(CC)CC(=O)Nc1c(C)cccc1C [Lidocaine] | 1.5 to 5 µg/mL | 
19 | CC(=O)NC[C@H]1CN(c2ccc(N3CCOCC3)c(F)c2)C(=O)O1 [Linezolid] | 1.75 to 7.53 µg/mL | Therapeutic window ([2]; Table D): 1.8 to 7.5 µg/mL
20 | [Li] [Lithium] | 0.6-1.2 mEq/L | 
21 | Cc1cccc(C)c1OCC(C)N (stereo not drawn) [Mexiletine] | 0.5 to 2.5 µg/mL | Therapeutic window ([2]; Table D): 0.5 to 2.5 µg/mL
22 | COc1c(C)c2c(c(O)c1C/C=C(\C)CCC(=O)O)C(=O)OC2 [Mycophenolic Acid] | 1 to 4 µg/mL | Therapeutic window ([2]; Table D): 1 to 4 µg/mL
23 | CCN(CC)CCNC(=O)c1ccc(NC(C)=O)cc1 [NAPA] | 4 to 8 µg/mL | Therapeutic window ([2]; Table D): 4 to 8 µg/mL
24 | O=C1CN=C(c2ccccc2)c2cc([N+](=O)[O-])ccc2N1 [Nitrazepam] | 0.03 to 0.1 µg/mL | 
25 | C1CCC(C(CC2CCCCN2)C2CCCCC2)CC1 (stereo not drawn) [Perhexeline] | 0.3 to 4 µg/mL | 

Row | Compound | Window [2, 4] | other results
26 | O=C1NC(=O)C(c2ccccc2)(c2ccccc2)N1 [Phenytoin] | 10 to 20 µg/mL | 
27 | CC[C@@H]([C@H](C)O)n1ncn(-c2ccc(N3CCN(c4ccc(OC[C@@H]5CO[C@@](Cn6cncn6)(c6ccc(F)cc6F)C5)cc4)CC3)cc2)c1=O [Posaconazole] | ~0.7 µg/mL | Therapeutic window (μg/mL) ([2]; Table D): Maintain at 0.7 μg/mL
28 | CCC1(c2ccccc2)C(=O)NCNC1=O [Primidone] | 5 to 12 µg/mL | 
29 | C=C[C@H]1C[N@@]2CC[C@H]1C[C@@H]2[C@@H](O)c1ccnc2ccc(OC)cc12 [Quinidine] | 2 to 5 µg/mL | Therapeutic window ([2]; Table D): 2 to 5 µg/mL
30 | CCc1c2c(nc3ccc(O)cc13)-c1cc3c(c(=O)n1C2)COC(=O)[C@]3(O)CC [SN-38, 7-ethyl-10-hydroxycampto-thecin] |  | concentration of SN-38 lower than that of Irinotecan [3]: over 30 times; more potent at inhibiting topoisomerase I than the parent Irinotecan (topoisomerase I): up to 1,000
31 | O=C(O)c1ccccc1O [Salicylate] | 15 to 30 µg/mL | Therapeutic window ([2]; Table D): 15 to 30 µg/mL
32 | CO[C@H]1C[C@@H]2CC[C@@H](C)[C@@](O)(O2)C(=O)C(=O)N2CCCC[C@H]2C(=O)O[C@H]([C@H](C)C[C@@H]2CC[C@@H](O)[C@H](OC)C2)CC(=O)[C@H](C)/C=C(\C)[C@@H](O)[C@@H](OC)C(=O)[C@H](C)C[C@H](C)/C=C/C=C/C=C/1C [Sirolimus] | 0.005 to 0.01 µg/mL | 
33 | C=CC[C@@H]1/C=C(\C)C[C@H](C)C[C@H](OC)[C@H]2O[C@@](O)(C(=O)C(=O)N3CCCC[C@H]3C(=O)O[C@H](/C(C)=C/[C@@H]3CC[C@@H](O)[C@H](OC)C3)[C@H](C)[C@@H](O)CC1=O)[C@H](C)C[C@@H]2OC [Tacrolimus] | 5 to 20 µg/mL | 
34 | Cn1c(=O)c2[nH]cnc2n(C)c1=O [Theophylline] | 5 to 15 µg/mL | 
35 | Cc1ccsc1C(=CCCN1CCC[C@@H](C(=O)O)C1)c1sccc1C [Tiagibine] | 0.02 to 0.2 µg/mL | 
36 | NC[C@H]1O[C@H](O[C@H]2[C@H](O)[C@@H](O[C@H]3O[C@H](CO)[C@@H](O)[C@H](N)[C@H]3O)[C@H](N)C[C@@H]2N)[C@H](N)C[C@@H]1O [Tobramicin] | 2 to 10 µg/mL | 
37 | CC1(C)O[C@@H]2[C@@H](CO[C@@]3(COS(N)(=O)=O)OC(C)(C)O[C@@H]23)O1 [Topiramate] | 2 to 10 µg/mL | 
38 | CCCC(CCC)C(=O)O [Valproic acid] | 50 to 125 µg/mL | 
39 | CN[C@H](CC(C)C)C(=O)N[C@H]1C(=O)N[C@@H](CC(N)=O)C(=O)N[C@H]2C(=O)N[C@H]3C(=O)N[C@H](C(=O)N[C@H](C(=O)O)c4cc(O)cc(O)c4-c4cc3ccc4O)[C@H](O)c3ccc(c(Cl)c3)Oc3cc2cc(c3O[C@@H]2O[C@H](CO)[C@@H](O)[C@H](O)[C@H]2O[C@H]2C[C@](C)(N)[C@H](O)[C@H](C)O2)Oc2ccc(cc2Cl)[C@H]1O [Vancomycin] | 10 to 20 µg/mL | 
40 | C=CC(N)CCC(=O)O (stereo not drawn) [Vigabratin] | 0.8 to 36 µg/mL | 
41 | NS(=O)(=O)Cc1noc2ccccc12 [Zonisamide] | 10 to 40 µg/mL | 
42 | Cc1nc(Nc2ncc(C(=O)Nc3c(C)cccc3Cl)s2)cc(N2CCN(CCO)CC2)n1 [dasatinib] | ~0.05 µg/mL | 
43 | C#Cc1cccc(Nc2ncnc3cc(OCCOC)c(OCCOC)cc23)c1 [erlotinib] |  | Window [2, 5]: 100 to 150 mg/day
44 | CNC(=O)c1cc(Oc2ccc(NC(=O)Nc3ccc(Cl)c(C(F)(F)F)c3)cc2)ccn1 [sorafenib] |  | Window [2, 5]: 800 mg/day
45 | Adalimumab |  | Window ([2]; in vivo): 3.5 to 7 µg/mL
46 | Certolizumab pegol: antibody for autoimmune diseases |  | Window ([2]; in vivo): 3 to 84 µg/mL
47 | Infliximab: antibody for autoimmune diseases |  | Window ([2]; in vivo): ~3.8 µg/mL
48 | Teicoplanin | 10 to 60 µg/mL | 
49 | retuximab: cancer drug listed in Table D; not natively fluorescent, requires label |  | Window ([2]; in vivo): Maintain at 375 mg/m^2
